From US10604509B2, “Nrf2 regulators” (GlaxoSmithKline Intellectual Property Development Limited, priority 2015, dated 2020)
Structures can show the parent of a compound that is named as a salt.

Each compound was assayed on NQO1 specific enzyme activity in BEAS-2B cells (assay: BEAS-2B NQO1 MTT assay). Conditions: Homo sapiens, BEAS-2B, 48 h, BEAS-2B cells, 48 hours with compound, MTT readout; read-out: EC50 of NQO1 specific activity induction.
Assay type: cell-based
Description: NAD(P)H:quinone oxidoreductase 1 (NQO1), also called DT diaphorase, is a homodimeric FAD-containing enzyme that catalyzes obligatory NAD(P)H-dependent two-electron reductions of quinones and protects cells against the toxic and neoplastic effects of free radicals and reactive oxygen species arising from one-electron reductions. The transcription of NQO1 is finely regulated by NRF2, and thus NQO1 activity is a good marker for NRF2 activation. On day one, frozen BEAS-2B cells (ATCC) are thawed in a water bath, counted, and re-suspended at a concentration of 250,000 cells/mL. Fifty microliters of cells are plated in 384 well black clear-bottomed plates. Plates are incubated at 37° C., 5% CO2 overnight. On day two, plates are centrifuged and 50 nL of compound or controls are added to the cells. Plates are then incubated at 37° C., 5% CO2 for 48 hours. On day four, medium is aspirated from the plate and crude cell lysates are made by adding 13 uL of 1× Cell Signaling Technologies lysis buffer with 1 Complete, Mini, EDTA-free Protease Inhibitor Tablet (Roche) for each 10 mL of lysis buffer. After lysis plates are incubated for 20 minutes at room temperature. Two microliters of lysate are removed for use in Cell Titer Glo assay (Promega) and MTT cocktail is prepared (Prochaska et. al. 1998) for measurement of NQO1 activity. Fifty microliters of MTT cocktail is added to each well, plate is centrifuged, and analyzed on an Envision plate reader (Perkin Elmer) using Absorbance 570 nm label for 30 minutes. Product formation is measured kinetically and the EC50 of NQO1 specific activity induction is calculated by plotting the change in absorbance (Delta OD/min) versus the log of compound concentration followed by 3-parameter fitting.

Compound | EC50 [nM]
Cc1ccc(C(CC(=O)O)c2ccc3c(nnn3C)c2C)cc1CN1Cc2ccccc2OC(C)C1 (centres unmarked) [Example 3, trifluoroacetic Acid Salt] | 1000 to 10000
CCC1CN(Cc2cc(C(CCc3cn(CC)nn3)CC(=O)O)ccc2C)Cc2ccccc2O1 (centres unmarked) [Example 4, 5-(1-Ethyl-1H-1,2,3-triazol-4-yl)-3-(3-((2-ethyl-2,3-dihydrobenzo[f][1,4]oxazepin-4(5H)-yl)methyl)-4-methylphenyl)pentanoic Acid, Trifluoroacetic Acid Salt] | 1000 to 10000
CCC1CN(Cc2cc([C@H](CC(=O)O)c3ccc4c(nnn4C)c3C)ccc2C)Cc2ccccc2O1 (stereo partly drawn) [Example 5, (3S)-3-(1,4-Dimethyl-1H-benzo[d][1,2,3]triazol-5-yl)-3-(3-((2-ethyl-2,3-dihydrobenzo[f][1,4]oxazepin-4(5H)-yl)methyl)-4-methylphenyl)propanoic Acid, Trifluoroacetic Acid Salt] | 10 to 100
CCC1CN(Cc2cc([C@@H](CC(=O)O)c3ccc4c(nnn4C)c3C)ccc2C)Cc2ccccc2O1 (stereo partly drawn) [Example 6, (3R)-3-(1,4-Dimethyl-1H-benzo[d][1,2,3]triazol-5-yl)-3-(3-((2-ethyl-2,3-dihydrobenzo[f][1,4]oxazepin-4(5H)-yl)methyl)-4-methylphenyl)propanoic Acid, Trifluoroacetic Acid Salt] | 100 to 1000
Cc1ccc(C(c2ccc3c(nnn3C)c2C)C(C)(C)C(=O)O)cc1CN1Cc2ccccc2OC(C)(C)C1 (centres unmarked) [Example 8, 3-(1,4-Dimethyl-1H-benzo[d][1,2,3]triazol-5-yl)-3-(3-((2,2-dimethyl-2,3-dihydrobenzo[f][1,4]oxazepin-4(5H)-yl)methyl)-4-methylphenyl)-2,2-dimethylpropanoic Acid, Formic Acid Salt] | 1 to 10
Cc1ccc(C(CC(=O)O)c2ccc3c(nnn3C)c2C)cc1CN1CCCC(n2cccn2)C1 (centres unmarked) [Example 9, Ammonium 3-(3-((3-(1H-pyrazol-1-yl)piperidin-1-yl)methyl)-4-methylphenyl)-3-(1,4-dimethyl-1H-benzo[d][1,2,3]triazol-5-yl)propanoate] | 1000 to 10000
Cc1ccc(C(CC(=O)O)c2ccc3c(nnn3C)c2C)cc1CN1CCCC1c1nnc(C(C)C)[nH]1 (centres unmarked) [Example 10, Ammonium 3-(1,4-dimethyl-1H-benzo[d][1,2,3]triazol-5-yl)-3-(3-((2-(5-isopropyl-4H-1,2,4-triazol-3-yl)pyrrolidin-1-yl)methyl)-4-methylphenyl)propanoate] | 1000 to 10000
Cc1ccc(C(CC(=O)O)c2ccc3c(nnn3C)c2C)cc1CN1CCc2cnc(C(C)C)nc2C1 (centres unmarked) [Example 11, Ammonium 3-(1,4-dimethyl-1H-benzo[d][1,2,3]triazol-5-yl)-3-(3-((2-isopropyl-5,6-dihydropyrido[3,4-d]pyrimidin-7(8H)-yl)methyl)-4-methylphenyl)propanoate] | 1000 to 10000
CCc1nc(C2CCCCN2Cc2cc(C(CC(=O)O)c3ccc4c(nnn4C)c3C)ccc2C)no1 (centres unmarked) [Example 12, Ammonium 3-(1,4-dimethyl-1H-benzo[d][1,2,3]triazol-5-yl)-3-(3-((2-(5-ethyl-1,2,4-oxadiazol-3-yl)piperidin-1-yl)methyl)-4-methylphenyl)propanoate] | 100 to 1000
CCc1ncc2c(n1)CN(Cc1cc(C(CC(=O)O)c3ccc4c(nnn4C)c3C)ccc1C)CC2 (centres unmarked) [Example 13, Ammonium 3-(1,4-dimethyl-1H-benzo[d][1,2,3]triazol-5-yl)-3-(3-((2-ethyl-5,6-dihydropyrido[3,4-d]pyrimidin-7(8H)-yl)methyl)-4-methylphenyl)propanoate] | 1000 to 10000
Cc1ccc(C(CC(=O)O)c2ccc3c(nnn3C)c2C)cc1CN1CCOc2ccc(C#N)cc2C1 (centres unmarked) [Example 14, Ammonium 3-(3-((7-cyano-2,3-dihydrobenzo[f][1,4]oxazepin-4(5H)-yl)methyl)-4-methylphenyl)-3-(1,4-dimethyl-1H-benzo[d][1,2,3]triazol-5-yl)propanoate] | 1000 to 10000
Cc1ccc(C(CC(=O)O)c2ccc3c(nnn3C)c2C)cc1CN(C)Cc1ccccc1Br (centres unmarked) [Example 15, Ammonium 3-(3-(((2-bromobenzyl)(methyl)amino)methyl)-4-methylphenyl)-3-(1,4-dimethyl-1H-benzo[d][1,2,3]triazol-5-yl)propanoate] | 1000 to 10000
Cc1ccc(C(CC(=O)O)c2ccc3c(nnn3C)c2C)cc1CN(C)Cc1ccc(Br)cc1 (centres unmarked) [Example 16, Ammonium 3-(3-(((4-bromobenzyl)(methyl)amino)methyl)-4-methylphenyl)-3-(1,4-dimethyl-1H-benzo[d][1,2,3]triazol-5-yl)propanoate] | 1000 to 10000
Cc1ccc(C(CC(=O)O)c2ccc3c(nnn3C)c2C)cc1CN(C)Cc1cccc(Br)c1 (centres unmarked) [Example 17, Ammonium 3-(3-(((3-bromobenzyl)(methyl)amino)methyl)-4-methylphenyl)-3-(1,4-dimethyl-1H-benzo[d][1,2,3]triazol-5-yl)propanoate] | 1000 to 10000
Cc1ccc(C2(C)CN(Cc3cc(C(CC(=O)O)c4ccc5c(nnn5C)c4C)ccc3C)CCO2)cc1 (centres unmarked) [Example 18, 3-(1,4-Dimethyl-1H-benzo[d][1,2,3]triazol-5-yl)-3-(4-methyl-3-((2-methyl-2-(p-tolyl)morpholino)methyl)phenyl)propanoic Acid, Formic Acid Salt] | 1000 to 10000
CCC1c2cccn2CCN1Cc1cc(C(CC(=O)O)c2ccc3c(nnn3C)c2C)ccc1C (centres unmarked) [Example 19, 3-(1,4-dimethyl-1H-benzo[d][1,2,3]triazol-5-yl)-3-(3-((1-ethyl-3,4-dihdyropyrrolo[1,2-a]pyrazin-2(1H)-yl)methyl)-4-methylphenyl)propanoic acid, formic acid salt] | 1000 to 10000
COc1ccc(CN(Cc2cc(C(CC(=O)O)c3ccc4c(nnn4C)c3C)ccc2C)C2CC2)cc1 (centres unmarked) [Example 20, 3-(3-((cyclopropyl(4-methoxybenzyl)amino)meth-yl)-4-methylphenyl)-3-(1,4-dimethyl-1H-benzo[d][1,2,3]triazol-5-yl)propanoic acid, formic acid salt] | 100 to 1000
COc1ccc(C2COCCN2Cc2cc(C(CC(=O)O)c3ccc4c(nnn4C)c3C)ccc2C)cc1 (centres unmarked) [Example 21, 3-(1,4-dimethyl-1H-benzo[d][1,2,3]triazol-5-yl)-3-(3-((3-(4-methoxyphenyl)morpholino)methyl)-4-methylphenyl)propanoic acid, formic acid salt] | 1000 to 10000
Cc1ccc(C(c2ccc3c(nnn3C)c2C)C(C)(C)C(=O)O)cc1CN1Cc2cnccc2OC(C)(C)C1 (centres unmarked) [Example 22, 3-(1,4-Dimethyl-1H-benzo[d][1,2,3]triazol-5-yl)-3-(3-((2,2-dimethyl-2,3-dihydropyrido[3,4-f][1,4]oxazepin-4(5H)-yl)methyl)-4-methylphenyl)-2,2-dimethylpropanoic Acid, Trifluoroacetic Acid] | 1 to 10
Cc1ccc(C(c2ccc3c(nnn3C)c2C)C(C)(C)C(=O)O)cc1CN1Cc2cccnc2OC(C)(C)C1 (centres unmarked) [Example 23, 3-(1,4-Dimethyl-1H-benzo[d][1,2,3]triazol-5-yl)-3-(3-((2,2-dimethyl-2,3-dihydropyrido[3,2-f][1,4]oxazepin-4(5H)-yl)methyl)-4-methylphenyl)-2,2-dimethylpropanoic Acid, Trifluoroacetic Acid] | 10 to 100
